Assay results: article PMC6099588

Columns and labels:
[1] = system: HCVcc (Jc1/JFH genotype 2a); type: cell-based, hepatitis C virus
in vitro = conditions: human, CC50, Huh-7.5 cells, MTS assay, 72 h
[2] = system: classical swine fever virus; conditions: cited from earlier work
influenza A virus = conditions: cited from earlier work; for antiviral activity against influenza A virus: among compounds 1–9
HCVpp [3] = experiment: microbe, parasite or virus in culture; conditions: Hepatitis C virus, read-out: inhibition of infection (HCVpp)
HCVcc = HCVcc dose-response SEAP reporter assay in Huh7-J20 cells; conditions: for IC50: Hepatitis C virus, Huh7-J20, 72 h; for selectivity index (SI), CC50/IC50 ratio: Huh7-J20 cells, HCVcc
[4] = system: HCV replication (Huh7-J17 replicon cell line); experiment: HCV replicon luciferase assay in Huh7-J17 cells; conditions: 72 h; for effect on HCV replication process (luciferase activity): Huh7-J17 replicon cells, different doses
HCV E2 glycoprotein = experiment: Western blot of E2 glycoprotein accumulation in transfected HEK293T cells; conditions: anti-E2 MAb AP33, 48 h post transfection
HCVpp [5] = conditions: 50 μM, added to HEK-293T producer cells; luciferase in infected Huh-7.5 cells
[6] = MTS cytotoxicity alongside the Huh7-J20 SEAP assay; conditions: human, Huh7-J20 cells

For `CC1(C)O[C@@H]2[C@H](O1)[C@@H](CO[C@@H]1C[C@@H](OCc3ccccc3)[C@H](OCc3ccccc3)[C@@H](COCc3ccccc3)O1)O[C@H]2n1ccc(=O)[nH]c1=O` [Compound 3], the “anti-HCV activity (reduction of pseudoplaques)” value [1] was “minor anti-HCV activity” and the CC50 (in vitro) was 89 µM.
For `CC(=O)OC[C@H]1O[C@H](OC[C@H]2O[C@@H](n3ccc(=O)n(Cc4ccccc4)c3=O)[C@@H]3OC(C)(C)O[C@@H]32)C[C@@H](OC(C)=O)[C@@H]1OC(C)=O` [Compound 8], the “anti-HCV activity (reduction of pseudoplaques)” value [1] was “minor anti-HCV activity” and the CC50 (in vitro) was 223 µM.
With `CC(=O)O[C@H]1[C@H](C)O[C@H](OC[C@H]2O[C@@H](n3ccc(=O)[nH]c3=O)[C@@H]3OC(C)(C)O[C@@H]32)C[C@@H]1O[Si](C)(C)C(C)(C)C` [Compound 1] the “anti-HCV activity (reduction of pseudoplaques)” value [1] was “no obvious anti-HCV activity” and the CC50 (in vitro) was 85 µM.
With `CC1(C)O[C@@H]2[C@H](O1)[C@@H](CO[C@@H]1C[C@@H](OCc3ccccc3)[C@H](OCc3ccccc3)[C@@H](CO[Si](C)(C)C(C)(C)C)O1)O[C@H]2n1ccc(=O)[nH]c1=O` [Compound 5] the “anti-HCV activity (reduction of pseudoplaques)” value [1] was “no obvious anti-HCV activity” and the CC50 (in vitro) was 83 µM.
In the case of `CC1(C)O[C@@H]2[C@H](O1)[C@@H](CO[C@@H]1C[C@@H](OCc3ccccc3)[C@H](OCc3ccccc3)[C@@H](CO[Si](C)(C)C(C)(C)C)O1)O[C@H]2n1ccc(=O)n(C(=O)c2ccccc2)c1=O` [IW3], the “ability to inhibit classical swine fever virus” value [2] is given as “most active” and the “ability to inhibit influenza A virus” value (influenza A virus) is given as “most active”.
In the case of `O=c1ccn([C@@H]2O[C@H](CO[C@@H]3C[C@@H](O)[C@H](O)[C@@H](CO)O3)[C@@H](O)[C@H]2O)c(=O)[nH]1` [Compound 9], the “anti-HCV activity (reduction of pseudoplaques)” value [1] is reported as “minor anti-HCV activity” and the CC50 (in vitro) is reported as 245 µM.
In the case of `CC1(C)O[C@@H]2[C@H](O1)[C@@H](CO[C@@H]1C[C@@H](OCc3ccccc3)[C@H](OCc3ccccc3)[C@@H](CO)O1)O[C@H]2n1ccc(=O)n(C(=O)c2ccccc2)c1=O` [IW7], the “ability to inhibit classical swine fever virus” value [2] is listed as “most active” and the “ability to inhibit influenza A virus” value (influenza A virus) is listed as “most active”.
Molecule `CC(=O)N[C@H]1[C@@H](O[C@@H]2O[C@H](C[C@@H](O)[C@H]3O[C@@H](n4ccc(=O)[nH]c4=O)[C@H](O)[C@@H]3O)[C@H](O)[C@H](O)[C@H]2NC(=O)/C=C/CCCCCCCCCC(C)C)O[C@H](CO)[C@@H](O)[C@@H]1O` [Tunicamycin] has an inhibition at 5 µM (HCVpp [3]) of over 80%.
With `CC1(C)O[C@@H]2[C@H](O1)[C@@H](CO[C@@H]1C[C@@H](OCc3ccccc3)[C@H](OCc3ccccc3)[C@@H](COCc3ccccc3)O1)O[C@H]2n1ccc(=O)n(C(=O)c2ccccc2)c1=O` [Compound 4] the IC50 (HCVcc) was 2.1 µM, the “selectivity index (SI), CC50/IC50 ratio” value (HCVcc) was 67.6 and the “effect on HCV replication process (luciferase activity)” value [4] was “no effect on HCV replication process”. For the same molecule, the “antiviral activity against influenza A virus” value (influenza A virus) was “most active”, the “anti-HCV activity (reduction of pseudoplaques)” value [1] was “high antiviral activity” and the CC50 (in vitro) was 151 µM. For the same molecule, the “accumulation of E2 glycoprotein in HEK293T cells” value (HCV E2 glycoprotein) was “no change in the accumulation”, the “reduction of HCVpp production and/or infectivity relative to DMSO control” value (HCVpp [5]) was “about 80%” and the CC50 [6] was 142 µM.
In the case of `CC(C)OC(=O)[C@H](C)N[P@](=O)(OC[C@H]1O[C@@H](n2ccc(=O)[nH]c2=O)[C@](C)(F)[C@@H]1O)Oc1ccccc1` [Sofosbuvir, reference compound], the IC50 (HCVcc) is reported as 0.26 µM, the “selectivity index (SI), CC50/IC50 ratio” value (HCVcc) is reported as “about 120” and the IC50 ([4]; Hepatitis C virus) is reported as 0.028 µM.
In the case of `CC(=O)O[C@H]1[C@H](C)O[C@H](OC[C@H]2O[C@@H](n3ccc(=O)n(C(=O)c4ccccc4)c3=O)[C@@H]3OC(C)(C)O[C@@H]32)C[C@@H]1O[Si](C)(C)C(C)(C)C` [Compound 2], the IC50 (HCVcc) is reported as 8.9 µM, the “selectivity index (SI), CC50/IC50 ratio” value (HCVcc) is reported as 12.7 and the “effect on HCV replication process (luciferase activity)” value [4] is reported as “no effect on HCV replication process”. The “antiviral activity against influenza A virus” value (influenza A virus) was “most active”, the “anti-HCV activity (reduction of pseudoplaques)” value [1] was “high antiviral activity” and the CC50 (in vitro) was 119 µM. The “accumulation of E2 glycoprotein in HEK293T cells” value (HCV E2 glycoprotein) was “no change in the accumulation”, the “reduction of HCVpp production and/or infectivity relative to DMSO control” value (HCVpp [5]) was “about 80%” and the CC50 [6] was 113 µM.
For `CC(=O)OC[C@H]1O[C@H](OC[C@H]2O[C@@H](n3ccc(=O)[nH]c3=O)[C@@H]3OC(C)(C)O[C@@H]32)C[C@@H](OC(C)=O)[C@@H]1OC(C)=O` [Compound 6], the “anti-HCV activity (reduction of pseudoplaques)” value [1] was “no obvious anti-HCV activity” and the CC50 (in vitro) was 210 µM.
